In the experiment the test system is HCV replicon (5-2 Luc replicon-comprising cells). In words: HCV replicon assay (luciferase). Format: cell-based, Hepatitis C virus. To be noted: 5-2 Luc replicon cells, luciferase readout, read-out: Replicon IC50. The gist of the method: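 Huh7-derived 5-2 Luc replicon cells seeded 24 h at 37 °C, then exposed to compound at various concentrations for another 24 h. Luciferase quantified by Bright-Glo luminescence; IC50 = concentration giving 50% reduction in luciferase activity; reported as +/− at a 10 μM cut-off.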
A general note: In antiviral work, replicon cells carry a viral genome segment that copies itself.

Read-outs that look alike come from different tables or passages of the source. Some results are limits rather than exact numbers.

The IC50 is the concentration that gives 50% inhibition. In the case of `O=C(Nc1cccc(-c2cc(-c3c(Cl)cccc3N3CCC(NS(=O)(=O)c4ccccc4)C3)no2)c1)C(Cl)Cl` (stereo not shown) [Compound 681], the IC50 was < 10 µM.

As for `CCNC(=O)NC1CCN(c2cccc(Cl)c2-c2cc(-c3cccc(NC(=O)C(Cl)Cl)c3)on2)CC1` [Compound 579], the IC50 was < 10 µM. In the case of `CC(C)(C)OC(=O)N1CCCC(Oc2cccc(Cl)c2-c2cc(-c3cccc(NC(=O)C(Cl)Cl)c3)on2)C1` (stereo not shown) [Compound 570], the IC50 is < 10 µM. As to `O=C(Nc1cccc(-c2cc(-c3c(Cl)cccc3N3CCC(Cc4ccccc4)CC3)no2)c1)C(Cl)Cl` [Compound 637], the IC50 was < 10 µM. On the same count and under the same terms, then `CC(C)(C)OC(=O)NCC1CCN(c2cccc(Cl)c2-c2cc(-c3cccc(NC(=O)C(Cl)Cl)c3)on2)CC1` [Compound 589], with < 10 µM; and `O=C(Nc1cccc(-c2cc(-c3c(Cl)cccc3OC(=O)N3CCOCC3)no2)c1)C(Cl)Cl` [Compound 602], with < 10 µM; and `O=C(Nc1cccc(-c2cc(-c3c(Cl)cccc3N3CCC4(CC3)OCCO4)no2)c1)C(Cl)Cl` [Compound 615], with < 10 µM.

Take `O=C(Nc1cccc(-c2cc(-c3c(Cl)cccc3-n3ccnc3)no2)c1)C(Cl)Cl` [Compound 117, 2,2-Dichloro-N-[3-[3-[2-chloro-6-(N-imidazolyl)phenyl]-5-isoxazolyl]phenyl]Acetamide]: the concentration for half-maximal inhibition (IC50) (Hepatitis C virus) is < 10 µM. With `O=C(NC1CCN(c2cccc(Cl)c2-c2cc(-c3cccc(NC(=O)C(Cl)Cl)c3)on2)CC1)c1ccco1` [Compound 543], the IC50 is < 10 µM. Regarding `O=C(Nc1cccc(-c2cc(-c3ccccc3CO)no2)c1)C(Cl)Cl` [Compound 621], the half-maximal inhibitory concentration (IC50) was < 10 µM. On the same count and under the same terms, under `CS(=O)(=O)Nc1cccc(Cl)c1-c1cc(-c2cccc(NC(=O)C(Cl)Cl)c2)on1` [Compound 561] stands < 10 µM; under `COC(=O)C1CC(Oc2cccc(Cl)c2-c2cc(-c3cccc(NC(=O)C(Cl)Cl)c3)on2)CN1C(=O)OC(C)(C)C` (stereo not shown) [Compound 590], < 10 µM; under `NC(Cc1ccccc1)C(=O)N1CCN(c2cccc(Cl)c2-c2cc(-c3cccc(NC(=O)C(Cl)Cl)c3)on2)CC1` (stereo not shown) [Compound 541], > 10 µM. For the molecule `O=C(Nc1cccc(-c2cc(-c3c(Cl)cccc3OC3CCCNC3)no2)c1)C(Cl)Cl` (stereo not shown) [Compound 571], the IC50 was < 10 µM. As to `O=C(Nc1cccc(-c2cc(-c3c(Cl)cccc3N3CCN(C(=O)c4ccco4)CC3)no2)c1)C(Cl)Cl` [Compound 519], the 50% inhibitory concentration (IC50) was < 10 µM.

In the case of `O=C(Nc1cccc(-c2cc(-c3c(Cl)cccc3OP(=O)(O)O)no2)c1)C(Cl)Cl` [Compound 603], the IC50 was < 10 µM. Regarding `O=C(Nc1cccc(-c2cc(-c3c(Cl)cccc3N3CCN(C(=O)C4CCCCN4)CC3)no2)c1)C(Cl)Cl` (stereo not shown) [Compound 666], the IC50 was < 10 µM. For `O=C(Nc1cccc(-c2cc(-c3c(Cl)cccc3N3CCN(C(=O)Nc4ccccc4)CC3)no2)c1)C(Cl)Cl` [Compound 534], the IC50 was < 10 µM.

`CC(C)(C)OC(=O)N1CCC(Oc2cccc(Cl)c2-c2cc(-c3cccc(NC(=O)C(Cl)Cl)c3)on2)CC1` [Compound 568]: the IC50 is < 10 µM. In the case of `O=C(Nc1cccc(-c2cc(-c3c(Cl)cccc3C(=O)N3CCOCC3)no2)c1)C(Cl)Cl` [Compound 683], the IC50 was < 10 µM. On the same count and under the same terms, then `O=C(Nc1cccc(-c2cc(-c3c(Cl)cccc3N3CCN(C(=O)Cc4cccnc4)CC3)no2)c1)C(Cl)Cl` [Compound 558], with < 10 µM. On the same count and under the same terms, then `O=C(Nc1cccc(-c2cc(-c3c(Cl)cccc3N3CCN(c4cccnc4)CC3)no2)c1)C(Cl)Cl` [Compound 550], with < 10 µM. In the case of `O=C(Nc1cccc(-c2cc(-c3c(Cl)cccc3N3CCN(C(=O)c4cc(C(F)(F)F)cc(C(F)(F)F)c4)CC3)no2)c1)C(Cl)Cl` [Compound 658], the IC50 was < 10 µM. As to `CN(C)C(=O)NC1CCN(c2cccc(Cl)c2-c2cc(-c3cccc(NC(=O)C(Cl)Cl)c3)on2)C1` (stereo not shown) [Compound 574], the IC50 is < 10 µM. With `CCOC(=O)N1CCN(c2cccc(Cl)c2-c2cc(-c3cccc(NC(=O)C(Cl)Cl)c3)on2)CC1` [Compound 624], the half-maximal inhibitory concentration (IC50) is < 10 µM. Take `O=C(Nc1cccc(-c2cc(-c3c(Cl)cc(OCCCN4CCOCC4)cc3Cl)no2)c1)C(Cl)Cl` [Compound 73, 2,2-Dichloro-N-[3-[3-[2,6-dichloro-4-(N-morpholinopropyleneoxy)phenyl]-5-isoxazolyl]-phenyl]Acetamide]: the IC50 was < 10 µM. On the same count and under the same terms, under `CCC(=O)N1CCN(c2cccc(Cl)c2-c2cc(-c3cccc(NC(=O)C(Cl)Cl)c3)on2)CC1` [Compound 648] stands < 10 µM; under `CCCNC(=O)Oc1cccc(Cl)c1-c1cc(-c2cccc(NC(=O)C(Cl)Cl)c2)on1` [Compound 606], < 10 µM. Regarding `CC(C)(C)OC(=O)N1CCN(c2cccc(Cl)c2-c2cc(-c3cccc(NC(=O)C(Cl)Cl)c3)on2)CC1` [Compound 510], the IC50 is < 10 µM.

As to `O=C(Nc1cccc(-c2cc(-c3c(Cl)cccc3N3CCN(C(=O)c4ccno4)CC3)no2)c1)C(Cl)Cl` [Compound 530], the IC50 was < 10 µM. In the case of `N#Cc1ccccc1-c1cc(-c2cccc(NC(=O)C(Cl)Cl)c2)on1` [Compound 610], the IC50 is < 10 µM. `CC(=O)N1CCC(Oc2cccc(Cl)c2-c2cc(-c3cccc(NC(=O)C(Cl)Cl)c3)on2)C1` (stereo not shown) [Compound 595]: the 50% inhibitory concentration (IC50) is < 10 µM.

For `CC(C)(C)OC(=O)NC(Cc1ccccc1)C(=O)N1CCN(c2cccc(Cl)c2-c2cc(-c3cccc(NC(=O)C(Cl)Cl)c3)on2)CC1` (stereo not shown) [Compound 532], the half-inhibitory concentration (IC50) is < 10 µM. Turning to `CN(C)C(=O)CN1CCN(c2cccc(Cl)c2-c2cc(-c3cccc(NC(=O)C(Cl)Cl)c3)on2)CC1` [Compound 628], the 50% inhibitory concentration (IC50) is < 10 µM. Regarding `CC(C)(C)OC(=O)N1CCC(Oc2cccc(Cl)c2-c2cc(-c3cccc(NC(=O)C(Cl)Cl)c3)on2)C1` (stereo not shown) [Compound 592], the 50% inhibitory concentration (IC50) was < 10 µM. For `O=C(Nc1cccc(-c2cc(-c3c(Cl)cccc3N3CCC(NCc4ccccn4)CC3)no2)c1)C(Cl)Cl` [Compound 588], the 50% inhibitory concentration (IC50) was < 10 µM. Take `CCCCNC(=O)Nc1cccc(Cl)c1-c1cc(-c2cccc(NC(=O)C(Cl)Cl)c2)on1` [Compound 669]: the IC50 was < 10 µM. With `O=C(Nc1cccc(-c2cc(-c3c(Cl)cc(Cl)cc3OCCN3CCOCC3)no2)c1)C(Cl)Cl` [Compound 143, 2,2-Dichloro-N-[3-[3-[2,4-dichloro-6-(N-morpholino-2-ethyleneoxy)phenyl]-5-isoxazolyl]-phenyl]Acetamide], the half-inhibitory concentration (IC50) is > 10 µM. In the case of `O=C(NC1CCN(c2cccc(Cl)c2-c2cc(-c3cccc(NC(=O)C(Cl)Cl)c3)on2)CC1)c1cccnc1` [Compound 545], the IC50 is < 10 µM. Regarding `COc1ccc(-c2cc(-c3c(Cl)cccc3Cl)no2)cc1NC(=O)C(Cl)Cl` [Compound 173, 2,2-Dichloro-N-[3-[3-(2,6-dichlorophenyl)-5-isoxazolyl]-6-methoxyphenyl]Acetamide], under “Hepatitis C virus”, the half-maximal inhibitory concentration (IC50) was < 10 µM.

On to `CCN1CCN(c2cccc(Cl)c2-c2cc(-c3cccc(NC(=O)C(Cl)Cl)c3)on2)CC1` [Compound 627], for which the IC50 was < 10 µM.

With `CN(C)C1CCN(c2cccc(Cl)c2-c2cc(-c3cccc(NC(=O)C(Cl)Cl)c3)on2)C1` (racemic) [Compound 132, (±)-2,2-Dichloro-N-[3-[3-[2-chloro-6-(3-dimethylamino-N-pyrrolidino)phenyl]-5-isoxazolyl]-phenyl]Acetamide], the 50% inhibitory concentration (IC50) was < 10 µM. Still for that read-out and setting: under `O=C(Nc1cccc(-c2cc(-c3c(Cl)cccc3N3CCN(CCc4ccccn4)CC3)no2)c1)C(Cl)Cl` [Compound 653] stands < 10 µM; under `CN(C)CCN1CCN(c2cccc(Cl)c2-c2cc(-c3cccc(NC(=O)C(Cl)Cl)c3)on2)CC1` [Compound 630], < 10 µM; under `CS(=O)(=O)N1CCC(Oc2cccc(Cl)c2-c2cc(-c3cccc(NC(=O)C(Cl)Cl)c3)on2)CC1` [Compound 576], < 10 µM. Same read-out and setting: then `O=C(Nc1cccc(-c2cc(-c3c(Cl)cccc3N3CCSCC3)no2)c1)C(Cl)Cl` [Compound 616], with < 10 µM.

In the case of `O=C(Nc1cccc(-c2cc(-c3c(Cl)cccc3OC3CCNCC3)no2)c1)C(Cl)Cl` [Compound 569], the IC50 was < 10 µM. On the same count and under the same terms, under `CS(=O)(=O)NC1CCN(c2cccc(Cl)c2-c2cc(-c3cccc(NC(=O)C(Cl)Cl)c3)on2)CC1` [Compound 546] stands < 10 µM. Take `CCNC(=O)N1CCCC(Oc2cccc(Cl)c2-c2cc(-c3cccc(NC(=O)C(Cl)Cl)c3)on2)C1` (stereo not shown) [Compound 587]: the IC50 was < 10 µM. As for `O=C(Nc1cccc(-c2cc(-c3c(Cl)cccc3N3CCN(C(=O)c4ccccc4)CC3)no2)c1)C(Cl)Cl` [Compound 642], the IC50 is < 10 µM. In the case of `O=C(Nc1ccccc1)NC1CCN(c2cccc(Cl)c2-c2cc(-c3cccc(NC(=O)C(Cl)Cl)c3)on2)CC1` [Compound 548], the concentration for half-maximal inhibition (IC50) is < 10 µM.

As for `O=C(Nc1cccc(-c2cc(-c3ccccc3-c3ccccc3)no2)c1)C(Cl)Cl` [Compound 123, 2,2-Dichloro-N-[3-[3-(2-phenyl)phenyl-5-isoxazolyl]phenyl]Acetamide], the half-inhibitory concentration (IC50) was < 10 µM.
